In PubChem BioAssay (NCI):
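Each compound was tested at five concentrations against cells in 96-well plates for 48 hours. Definition used: TGI = concentration required for complete inhibition of growth.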

What was measured:
Assay in all cases: NCI-60 cell line screen, 48 h
786-0 renal = tested on: 786-0 renal
A498 renal = tested on: A498 renal
A549 NSCLC = tested on: A549 NSCLC
ACHN renal = tested on: ACHN renal
BT-549 breast = tested on: BT-549 breast
CAKI-1 renal = tested on: CAKI-1 renal
CCRF-CEM leukemia = tested on: CCRF-CEM leukemia
COLO 205 colon = tested on: COLO 205 colon
DU-145 prostate = tested on: DU-145 prostate
EKVX NSCLC = tested on: EKVX NSCLC
HCC-2998 colon = tested on: HCC-2998 colon
HCT-116 colon = tested on: HCT-116 colon
HCT-15 colon = tested on: HCT-15 colon
HL-60(TB) leukemia = tested on: HL-60(TB) leukemia
HOP-92 NSCLC = tested on: HOP-92 NSCLC
HS 578T breast = tested on: HS 578T breast
HT29 colon = tested on: HT29 colon
IGROV1 ovarian = tested on: IGROV1 ovarian
K-562 leukemia = tested on: K-562 leukemia
KM12 colon = tested on: KM12 colon
LOX IMVI melanoma = tested on: LOX IMVI melanoma
M14 melanoma = tested on: M14 melanoma
MALME-3M melanoma = tested on: MALME-3M melanoma
MCF7 breast = tested on: MCF7 breast
MDA-MB-231 breast = tested on: MDA-MB-231 breast
MDA-MB-435 = tested on: MDA-MB-435
MDA-N = tested on: MDA-N
MOLT-4 leukemia = tested on: MOLT-4 leukemia
NCI-H226 lung = tested on: NCI-H226 lung
NCI-H23 lung = tested on: NCI-H23 lung
NCI-H460 lung = tested on: NCI-H460 lung
NCI-H522 lung = tested on: NCI-H522 lung
NCI/ADR-RES ovarian = tested on: NCI/ADR-RES ovarian
OVCAR-3 ovarian = tested on: OVCAR-3 ovarian
OVCAR-4 ovarian = tested on: OVCAR-4 ovarian
OVCAR-5 ovarian = tested on: OVCAR-5 ovarian
OVCAR-8 ovarian = tested on: OVCAR-8 ovarian
PC-3 prostate = tested on: PC-3 prostate
RPMI-8226 leukemia = tested on: RPMI-8226 leukemia
SF-268 CNS = tested on: SF-268 CNS
SF-295 CNS = tested on: SF-295 CNS
SF-539 CNS = tested on: SF-539 CNS
SK-MEL-2 melanoma = tested on: SK-MEL-2 melanoma
SK-MEL-28 melanoma = tested on: SK-MEL-28 melanoma
SK-MEL-5 melanoma = tested on: SK-MEL-5 melanoma
SK-OV-3 ovarian = tested on: SK-OV-3 ovarian
SN12C renal = tested on: SN12C renal
SNB-19 CNS = tested on: SNB-19 CNS
SNB-75 CNS = tested on: SNB-75 CNS
SW-620 colon = tested on: SW-620 colon
T-47D breast = tested on: T-47D breast
TK-10 renal = tested on: TK-10 renal
U251 CNS = tested on: U251 CNS
UACC-257 melanoma = tested on: UACC-257 melanoma
UACC-62 melanoma = tested on: UACC-62 melanoma
UO-31 renal = tested on: UO-31 renal
HOP-62 NSCLC = tested on: HOP-62 NSCLC
RXF 393 renal = tested on: RXF 393 renal

CC1(C)OCC(C2CCC3(C)C4=CCC5C(C)(C)C(O)CCC5(C)C4CCC23C)CC(O)C1O (stereo not drawn)
TGI (786-0 renal): 28.7 µM | TGI (A498 renal): 42.6 µM | TGI (A549 NSCLC): 36 µM | TGI (ACHN renal): 45.9 µM | TGI (BT-549 breast): 32.9 µM | TGI (CAKI-1 renal): 27.5 µM | TGI (CCRF-CEM leukemia): 68.7 µM | TGI (COLO 205 colon): 43.5 µM | TGI (DU-145 prostate): 29 µM | TGI (EKVX NSCLC): 28.5 µM | TGI (HCC-2998 colon): 32.3 µM | TGI (HCT-116 colon): 27.3 µM | TGI (HCT-15 colon): 32.8 µM | TGI (HL-60(TB) leukemia): 56.7 µM | TGI (HOP-92 NSCLC): 36.4 µM | TGI (HS 578T breast): 44.7 µM | TGI (HT29 colon): 33.4 µM | TGI (IGROV1 ovarian): 33.1 µM | TGI (K-562 leukemia): 21.6 µM | TGI (KM12 colon): 28.1 µM | TGI (LOX IMVI melanoma): 31.7 µM | TGI (M14 melanoma): 35.4 µM | TGI (MALME-3M melanoma): 30.6 µM | TGI (MCF7 breast): 47.3 µM | TGI (MDA-MB-231 breast): 35.7 µM | TGI (MDA-MB-435): 31.8 µM | TGI (MDA-N): 34.5 µM | TGI (MOLT-4 leukemia): 35.9 µM | TGI (NCI-H226 lung): 32.9 µM | TGI (NCI-H23 lung): 38.2 µM | TGI (NCI-H460 lung): 41.4 µM | TGI (NCI-H522 lung): 36.3 µM | TGI (NCI/ADR-RES ovarian): 39.5 µM | TGI (OVCAR-3 ovarian): 30 µM | TGI (OVCAR-4 ovarian): 32.3 µM | TGI (OVCAR-5 ovarian): 36.2 µM | TGI (OVCAR-8 ovarian): 33.3 µM | TGI (PC-3 prostate): 26.6 µM | TGI (RPMI-8226 leukemia): 48.6 µM | TGI (SF-268 CNS): 37.6 µM | TGI (SF-295 CNS): 35.6 µM | TGI (SF-539 CNS): 39.9 µM | TGI (SK-MEL-2 melanoma): 32.5 µM | TGI (SK-MEL-28 melanoma): 32.6 µM | TGI (SK-MEL-5 melanoma): 28.7 µM | TGI (SK-OV-3 ovarian): 35.5 µM | TGI (SN12C renal): 36.2 µM | TGI (SNB-19 CNS): 29.5 µM | TGI (SNB-75 CNS): 29 µM | TGI (SW-620 colon): 37.4 µM | TGI (T-47D breast): 23.8 µM | TGI (TK-10 renal): 28.7 µM | TGI (U251 CNS): 31.3 µM | TGI (UACC-257 melanoma): 30.6 µM | TGI (UACC-62 melanoma): 29.1 µM | TGI (UO-31 renal): 33.2 µM

Cc1ccc(C[N+](C)(C)N)cc1C
TGI (786-0 renal): > 10 µM | TGI (A498 renal): > 10 µM | TGI (A549 NSCLC): > 10 µM | TGI (ACHN renal): > 10 µM | TGI (BT-549 breast): > 10 µM | TGI (CAKI-1 renal): > 10 µM | TGI (CCRF-CEM leukemia): > 10 µM | TGI (COLO 205 colon): > 10 µM | TGI (DU-145 prostate): > 10 µM | TGI (EKVX NSCLC): > 10 µM | TGI (HCC-2998 colon): > 10 µM | TGI (HCT-116 colon): > 10 µM | TGI (HCT-15 colon): > 10 µM | TGI (HL-60(TB) leukemia): > 10 µM | TGI (HOP-62 NSCLC): > 10 µM | TGI (HOP-92 NSCLC): > 10 µM | TGI (HS 578T breast): > 10 µM | TGI (HT29 colon): > 10 µM | TGI (IGROV1 ovarian): > 10 µM | TGI (K-562 leukemia): > 10 µM | TGI (KM12 colon): > 10 µM | TGI (LOX IMVI melanoma): > 10 µM | TGI (M14 melanoma): > 10 µM | TGI (MALME-3M melanoma): > 10 µM | TGI (MCF7 breast): > 10 µM | TGI (MDA-MB-231 breast): > 10 µM | TGI (MDA-MB-435): > 10 µM | TGI (MDA-N): > 10 µM | TGI (MOLT-4 leukemia): > 10 µM | TGI (NCI-H226 lung): > 10 µM | TGI (NCI-H23 lung): > 10 µM | TGI (NCI-H460 lung): > 10 µM | TGI (NCI-H522 lung): > 10 µM | TGI (NCI/ADR-RES ovarian): > 10 µM | TGI (OVCAR-3 ovarian): > 10 µM | TGI (OVCAR-4 ovarian): > 10 µM | TGI (OVCAR-5 ovarian): > 10 µM | TGI (OVCAR-8 ovarian): > 10 µM | TGI (PC-3 prostate): > 10 µM | TGI (RPMI-8226 leukemia): > 10 µM | TGI (RXF 393 renal): > 10 µM | TGI (SF-268 CNS): > 10 µM | TGI (SF-295 CNS): > 10 µM | TGI (SF-539 CNS): > 10 µM | TGI (SK-MEL-28 melanoma): > 10 µM | TGI (SK-MEL-5 melanoma): > 10 µM | TGI (SK-OV-3 ovarian): > 10 µM | TGI (SN12C renal): > 10 µM | TGI (SNB-19 CNS): > 10 µM | TGI (SNB-75 CNS): > 10 µM | TGI (SW-620 colon): > 10 µM | TGI (T-47D breast): > 10 µM | TGI (TK-10 renal): > 10 µM | TGI (U251 CNS): > 10 µM | TGI (UACC-257 melanoma): > 10 µM | TGI (UACC-62 melanoma): > 10 µM | TGI (UO-31 renal): > 10 µM
